In the NIST ThermoML archive (doi:10.1016/j.fluid.2011.06.011):
Values joined by “and” are separate entries in the source; they are usually repeats but may differ in a detail not shown here. Identical values can stand only once.

Tests used:
[1] = refractive index (Na D-line) (dimensionless); details: 101.33 kPa, Liquid, Standard Abbe refractometry
[2] = Liquid; for speed of sound: Sing-around technique in a fixed-path interferometer; for mass density: Vibrating tube method
[3] = refractive index (Na D-line) (dimensionless); xn = mol fraction of the nth substance listed; details: 101 kPa, Liquid, Standard Abbe refractometry, x2 = 0
[4] = xn = mol fraction of the nth substance listed; details: Liquid, x2 = 0; for speed of sound: Sing-around technique in a fixed-path interferometer; for mass density: Vibrating tube method

C=CC(C)(O)CCC=C(C)C (stereo not given) [3,7-dimethyl-1,6-octadien-3-ol]
[1]
Details	refractive index
283.15 K	1.46659 and 1.4666
298.15 K	1.45946
313.15 K	1.45215
328.15 K	1.44473

[2]
Details	mass density, 101.33 kPa [kg/m3]	mass density, 20000 kPa [kg/m3]	mass density, 25000 kPa [kg/m3]	mass density, 30000 kPa [kg/m3]	mass density, 35000 kPa [kg/m3]	mass density, 40000 kPa [kg/m3]	speed of sound, 101 kPa [m/s]	speed of sound, 101.33 kPa [m/s]
283.15 K	869.39	880.8	883.7	886.1	888.9	891.4	1370.6	1370.3
298.15 K	857	869.4	872.3	875.2	877.9	880.6	1315.1	1313.1
313.15 K	844.29	857.6	860.9	863.9	866.8	869.7	–	1260.8
328.15 K	831.31	846	849.3	852.6	855.7	858.8	–	1207.6

CCO [ethanol]
[1]
Details	refractive index
283.15 K	1.36546
298.15 K	1.35984
313.15 K	1.35409
328.15 K	1.34827

[2]
Details	mass density, 101 kPa [kg/m3]	mass density, 101.33 kPa [kg/m3]	mass density, 20000 kPa [kg/m3]	mass density, 25000 kPa [kg/m3]	mass density, 30000 kPa [kg/m3]	mass density, 35000 kPa [kg/m3]	mass density, 40000 kPa [kg/m3]	speed of sound, 101.33 kPa [m/s]
283.15 K	798.28	798.27	812.8	816.5	819.8	823	826.1	1196.2
298.15 K	785.46	785.45	801.5	805.3	808.8	812.2	815.5	1146.2
313.15 K	–	772.39	789.8	794	797.4	801	804.8	1096.7
328.15 K	–	758.93	777.8	782.2	786.3	790	793.9	1047

CCO [ethanol] + C=CC(C)(O)CCC=C(C)C
[3]
Details	refractive index
283.15 K	1.36546
298.15 K	1.35984
313.15 K	1.35409
328.15 K	1.34827

[4]
Details	mass density, 101 kPa [kg/m3]	mass density, 20000 kPa [kg/m3]	mass density, 25000 kPa [kg/m3]	mass density, 30000 kPa [kg/m3]	mass density, 35000 kPa [kg/m3]	mass density, 40000 kPa [kg/m3]	speed of sound, 101 kPa [m/s]
283.15 K	798.28	812.8	816.5	819.8	823	826.1	1196.2
298.15 K	785.46	801.5	805.3	808.8	812.2	815.5	1146.2
313.15 K	772.39	789.8	794	797.4	801	804.8	1096.7
328.15 K	758.93	777.8	782.2	786.3	790	793.9	1047
